Assay results: ChEMBL document CHEMBL5649169 (ChemMedChem, 2018)

How the values were obtained:
[1] = target: Focal adhesion kinase 1 (Homo sapiens) (UniProt Q05397); further: assay method not described here
[2] = target: Maternal embryonic leucine zipper kinase (Homo sapiens) (UniProt Q14680); further: assay method not described here
[3] = target: Dolichyl-diphosphooligosaccharide--protein glycosyltransferase subunit DAD1 (Homo sapiens) (UniProt P61803); further: assay method not described here
[4] = target: Nuclear pore complex protein Nup160 (Homo sapiens) (UniProt Q12769); further: assay method not described here
[5] = target: Serine/threonine-protein kinase N1 (Homo sapiens) (UniProt Q16512); further: assay method not described here
Serine/threonine-protein kinase N1 (Homo sapiens), sequence (Q16512 2-942 limits assumed): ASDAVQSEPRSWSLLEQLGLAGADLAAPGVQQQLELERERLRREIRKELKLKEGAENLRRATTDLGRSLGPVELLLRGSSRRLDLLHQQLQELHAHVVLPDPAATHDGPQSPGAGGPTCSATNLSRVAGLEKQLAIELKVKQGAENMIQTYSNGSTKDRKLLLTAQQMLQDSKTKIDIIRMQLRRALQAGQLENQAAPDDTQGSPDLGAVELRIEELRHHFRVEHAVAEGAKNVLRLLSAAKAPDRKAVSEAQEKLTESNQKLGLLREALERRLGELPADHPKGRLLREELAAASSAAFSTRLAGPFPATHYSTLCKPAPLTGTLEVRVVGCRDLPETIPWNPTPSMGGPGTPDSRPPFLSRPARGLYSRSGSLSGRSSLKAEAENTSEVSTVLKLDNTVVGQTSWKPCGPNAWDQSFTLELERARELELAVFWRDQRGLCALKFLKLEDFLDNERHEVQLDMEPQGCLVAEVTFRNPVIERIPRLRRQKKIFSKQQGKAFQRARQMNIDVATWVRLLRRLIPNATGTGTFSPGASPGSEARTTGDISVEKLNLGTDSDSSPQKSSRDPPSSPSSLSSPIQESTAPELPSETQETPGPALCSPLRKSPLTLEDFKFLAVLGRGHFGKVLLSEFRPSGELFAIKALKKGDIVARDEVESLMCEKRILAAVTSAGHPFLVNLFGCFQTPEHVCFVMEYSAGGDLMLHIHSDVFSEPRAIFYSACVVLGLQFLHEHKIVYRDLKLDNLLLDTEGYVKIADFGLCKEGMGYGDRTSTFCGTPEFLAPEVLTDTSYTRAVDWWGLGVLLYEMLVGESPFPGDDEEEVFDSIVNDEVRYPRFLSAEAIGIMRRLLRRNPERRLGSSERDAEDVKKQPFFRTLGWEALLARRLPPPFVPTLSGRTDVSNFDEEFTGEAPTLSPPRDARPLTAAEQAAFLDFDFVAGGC

[6] = target: Proto-oncogene tyrosine-protein kinase Src (Homo sapiens) (UniProt P12931); further: assay method not described here
[7] = target: Scaffold protein ILK (Homo sapiens) (UniProt Q13418); further: assay method not described here
Scaffold protein ILK (Homo sapiens), sequence (Q13418 whole entry): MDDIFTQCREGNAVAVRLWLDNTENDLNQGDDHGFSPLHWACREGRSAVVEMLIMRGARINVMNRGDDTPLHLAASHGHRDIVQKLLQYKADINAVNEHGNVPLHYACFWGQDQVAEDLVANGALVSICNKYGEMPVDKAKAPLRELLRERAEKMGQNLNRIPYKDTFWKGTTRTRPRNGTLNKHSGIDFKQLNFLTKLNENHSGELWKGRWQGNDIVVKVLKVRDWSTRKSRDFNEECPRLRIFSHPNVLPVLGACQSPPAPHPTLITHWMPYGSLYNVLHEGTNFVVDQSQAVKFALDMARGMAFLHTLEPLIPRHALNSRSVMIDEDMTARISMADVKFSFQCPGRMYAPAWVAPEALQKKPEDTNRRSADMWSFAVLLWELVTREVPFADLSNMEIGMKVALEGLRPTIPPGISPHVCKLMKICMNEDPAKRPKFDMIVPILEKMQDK

[8] = target: Fibroblast growth factor receptor 1 (Homo sapiens) (UniProt P11362); further: assay method not described here
Fibroblast growth factor receptor 1 (Homo sapiens), sequence (P11362 22-822 limits assumed): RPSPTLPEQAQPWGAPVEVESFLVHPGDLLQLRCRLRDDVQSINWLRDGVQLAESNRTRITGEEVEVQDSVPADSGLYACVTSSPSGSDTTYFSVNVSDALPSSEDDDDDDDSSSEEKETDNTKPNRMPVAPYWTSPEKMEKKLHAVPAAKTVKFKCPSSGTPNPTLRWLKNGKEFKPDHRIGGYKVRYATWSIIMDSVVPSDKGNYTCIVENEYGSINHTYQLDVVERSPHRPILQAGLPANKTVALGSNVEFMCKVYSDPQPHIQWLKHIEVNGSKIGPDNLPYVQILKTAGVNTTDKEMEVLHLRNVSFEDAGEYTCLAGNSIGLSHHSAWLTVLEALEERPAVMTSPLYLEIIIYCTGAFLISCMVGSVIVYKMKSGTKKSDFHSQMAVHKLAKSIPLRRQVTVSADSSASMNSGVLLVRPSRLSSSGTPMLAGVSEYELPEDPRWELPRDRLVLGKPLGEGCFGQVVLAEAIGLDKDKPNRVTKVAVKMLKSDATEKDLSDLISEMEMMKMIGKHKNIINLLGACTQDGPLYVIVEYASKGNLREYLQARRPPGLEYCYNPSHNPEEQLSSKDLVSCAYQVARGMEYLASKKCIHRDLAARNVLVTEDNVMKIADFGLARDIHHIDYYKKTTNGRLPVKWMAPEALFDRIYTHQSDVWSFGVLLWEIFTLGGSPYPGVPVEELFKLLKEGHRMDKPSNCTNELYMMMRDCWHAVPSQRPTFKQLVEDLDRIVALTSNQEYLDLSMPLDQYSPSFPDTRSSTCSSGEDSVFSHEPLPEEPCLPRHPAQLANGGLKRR

[9] = target: Importin-8 (Homo sapiens) (UniProt O15397); further: assay method not described here
[10] = target: Activated CDC42 kinase 1 (Homo sapiens) (UniProt Q07912); further: assay method not described here
Activated CDC42 kinase 1 (Homo sapiens), sequence (Q07912 whole entry, looked up): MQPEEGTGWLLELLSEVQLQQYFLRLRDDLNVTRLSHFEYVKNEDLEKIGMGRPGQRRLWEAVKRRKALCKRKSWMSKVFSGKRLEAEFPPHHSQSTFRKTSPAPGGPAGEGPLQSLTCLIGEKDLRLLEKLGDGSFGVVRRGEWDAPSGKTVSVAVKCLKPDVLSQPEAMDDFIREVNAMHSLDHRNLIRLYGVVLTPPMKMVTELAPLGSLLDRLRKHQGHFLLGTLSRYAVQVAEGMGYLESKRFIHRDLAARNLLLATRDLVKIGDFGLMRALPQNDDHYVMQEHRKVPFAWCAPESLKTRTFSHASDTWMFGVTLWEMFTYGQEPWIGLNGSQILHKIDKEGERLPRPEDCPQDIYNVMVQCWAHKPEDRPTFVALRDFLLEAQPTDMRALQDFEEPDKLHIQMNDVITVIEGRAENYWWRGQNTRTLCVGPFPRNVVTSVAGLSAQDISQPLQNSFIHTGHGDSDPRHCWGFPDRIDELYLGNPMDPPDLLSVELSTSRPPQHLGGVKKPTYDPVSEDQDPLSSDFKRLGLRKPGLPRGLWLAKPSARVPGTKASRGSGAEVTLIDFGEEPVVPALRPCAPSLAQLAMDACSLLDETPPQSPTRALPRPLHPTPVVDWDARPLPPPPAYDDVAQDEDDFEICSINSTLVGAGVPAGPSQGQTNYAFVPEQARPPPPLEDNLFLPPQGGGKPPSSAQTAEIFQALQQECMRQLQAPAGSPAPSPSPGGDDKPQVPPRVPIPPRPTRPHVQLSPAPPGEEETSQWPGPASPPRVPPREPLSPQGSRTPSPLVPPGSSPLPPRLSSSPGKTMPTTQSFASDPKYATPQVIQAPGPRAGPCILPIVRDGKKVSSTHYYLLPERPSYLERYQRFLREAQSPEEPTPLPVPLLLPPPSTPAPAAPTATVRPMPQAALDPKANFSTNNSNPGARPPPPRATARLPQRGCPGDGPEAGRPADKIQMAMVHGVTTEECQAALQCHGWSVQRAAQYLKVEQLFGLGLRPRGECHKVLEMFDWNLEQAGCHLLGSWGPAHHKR

[11] = target: Cyclin-dependent kinase 7 (Homo sapiens) (UniProt P50613); further: assay method not described here
[12] = target: DNA topoisomerase 1 (Homo sapiens) (UniProt P11387); further: assay method not described here
[13] = target: Small ribosomal subunit protein eS4, X isoform (Homo sapiens) (UniProt P62701); further: assay method not described here
[14] = target: Mitogen-activated protein kinase kinase kinase 3 (Homo sapiens) (UniProt Q99759); further: assay method not described here
Mitogen-activated protein kinase kinase kinase 3 (Homo sapiens), sequence (Q99759 whole entry, the tested form may be a part): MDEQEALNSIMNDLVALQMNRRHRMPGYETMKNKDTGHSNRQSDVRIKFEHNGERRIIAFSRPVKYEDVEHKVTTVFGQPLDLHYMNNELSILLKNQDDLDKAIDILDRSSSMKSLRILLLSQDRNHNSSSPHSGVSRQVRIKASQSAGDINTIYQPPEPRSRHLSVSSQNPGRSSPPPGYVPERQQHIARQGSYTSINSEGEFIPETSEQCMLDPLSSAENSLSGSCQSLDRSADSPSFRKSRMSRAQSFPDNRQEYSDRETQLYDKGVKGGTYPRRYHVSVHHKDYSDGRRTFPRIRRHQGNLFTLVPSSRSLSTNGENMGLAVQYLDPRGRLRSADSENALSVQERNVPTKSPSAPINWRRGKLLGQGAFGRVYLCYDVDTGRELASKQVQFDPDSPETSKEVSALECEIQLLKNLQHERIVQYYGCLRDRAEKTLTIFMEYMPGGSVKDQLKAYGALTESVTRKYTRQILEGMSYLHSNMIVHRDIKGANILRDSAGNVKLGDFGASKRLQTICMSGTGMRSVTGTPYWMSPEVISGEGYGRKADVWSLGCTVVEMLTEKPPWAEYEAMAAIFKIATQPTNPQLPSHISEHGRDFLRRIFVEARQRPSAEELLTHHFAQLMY

Ephrin type-B receptor 3 = Ephrin type-B receptor 3 (Homo sapiens, UniProt P54753); assay: Inhibition of Nano Luc-fused full length C-terminal EPHB3 (unknown origin) expressed in HEK293T cells using NanoGlo as substrate incubated for 2 hrs in presence of tracer by NanoBRET assay; type: cell-based
[15] = target: Small ribosomal subunit protein uS4 (Homo sapiens) (UniProt P46781); further: assay method not described here
[16] = target: Dual specificity mitogen-activated protein kinase kinase 3 (Homo sapiens) (UniProt P46734); further: assay method not described here
[17] = target: UBX domain-containing protein 1 (Homo sapiens) (UniProt Q04323); further: assay method not described here
[18] = target: 28S rRNA (cytosine(4447)-C(5))-methyltransferase (Homo sapiens) (UniProt P46087); further: assay method not described here
[19] = target: Cytochrome b-c1 complex subunit 1, mitochondrial (Homo sapiens) (UniProt P31930); further: assay method not described here
[20] = target: Delta-1-pyrroline-5-carboxylate synthase (Homo sapiens) (UniProt P54886); further: assay method not described here
[21] = target: Actin-related protein 2/3 complex subunit 3 (Homo sapiens) (UniProt O15145); further: assay method not described here
[22] = target: Ferrochelatase, mitochondrial (Homo sapiens) (UniProt P22830); further: assay method not described here
[23] = target: DNA repair protein RAD50 (Homo sapiens) (UniProt Q92878); further: assay method not described here
[24] = target: Trifunctional enzyme subunit beta, mitochondrial (Homo sapiens) (UniProt P55084); further: assay method not described here
[25] = target: Protein unc-119 homolog A (Homo sapiens) (UniProt Q13432); further: assay method not described here
[26] = target: 26S proteasome non-ATPase regulatory subunit 8 (Homo sapiens) (UniProt P48556); further: assay method not described here
[27] = target: Splicing factor U2AF 35 kDa subunit (Homo sapiens) (UniProt Q01081); further: assay method not described here
[28] = target: Phosphorylase b kinase gamma catalytic chain, liver/testis isoform (Homo sapiens) (UniProt P15735); further: assay method not described here
[29] = target: E3 ubiquitin-protein ligase UBR4 (Homo sapiens) (UniProt Q5T4S7); further: assay method not described here
[30] = target: Mediator of RNA polymerase II transcription subunit 23 (Homo sapiens) (UniProt Q9ULK4); further: assay method not described here
[31] = target: Cyclin-G-associated kinase (Homo sapiens) (UniProt O14976); further: assay method not described here
[32] = target: Putative divalent cation/proton antiporter TMEM165 (Homo sapiens) (UniProt Q9HC07); further: assay method not described here
[33] = target: Carnitine O-palmitoyltransferase 1, liver isoform (Homo sapiens) (UniProt P50416); further: assay method not described here
[34] = target: Transgelin-2 (Homo sapiens) (UniProt P37802); further: assay method not described here
[35] = target: Cytochrome c oxidase subunit 5B, mitochondrial (Homo sapiens) (UniProt P10606); further: assay method not described here
Cytochrome c oxidase subunit 5B, mitochondrial (Homo sapiens), sequence (P10606 whole entry): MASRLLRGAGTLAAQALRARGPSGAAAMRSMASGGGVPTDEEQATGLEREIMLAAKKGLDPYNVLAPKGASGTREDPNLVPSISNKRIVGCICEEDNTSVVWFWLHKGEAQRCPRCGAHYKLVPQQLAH

[36] = target: Serine/threonine-protein kinase Chk1 (Homo sapiens) (UniProt O14757); further: assay method not described here
Emerin (Homo sapiens) = Emerin (Homo sapiens) (UniProt P50402); further: assay method not described here
[37] = target: U2 snRNP-associated SURP motif-containing protein (Homo sapiens) (UniProt O15042); further: assay method not described here
[38] = target: Large ribosomal subunit protein eL20 (Homo sapiens) (UniProt Q02543); further: assay method not described here
Lamin-B2 (Homo sapiens) = Lamin-B2 (Homo sapiens) (UniProt Q03252); further: assay method not described here
[39] = target: Single-stranded DNA-binding protein, mitochondrial (Homo sapiens) (UniProt Q04837); further: assay method not described here
[40] = target: Large ribosomal subunit protein bL12m (Homo sapiens) (UniProt P52815); further: assay method not described here
[41] = target: Rho GDP-dissociation inhibitor 2 (Homo sapiens) (UniProt P52566); further: assay method not described here

Focal adhesion kinase 1 (Homo sapiens), sequence (Q05397 2-1052 limits assumed): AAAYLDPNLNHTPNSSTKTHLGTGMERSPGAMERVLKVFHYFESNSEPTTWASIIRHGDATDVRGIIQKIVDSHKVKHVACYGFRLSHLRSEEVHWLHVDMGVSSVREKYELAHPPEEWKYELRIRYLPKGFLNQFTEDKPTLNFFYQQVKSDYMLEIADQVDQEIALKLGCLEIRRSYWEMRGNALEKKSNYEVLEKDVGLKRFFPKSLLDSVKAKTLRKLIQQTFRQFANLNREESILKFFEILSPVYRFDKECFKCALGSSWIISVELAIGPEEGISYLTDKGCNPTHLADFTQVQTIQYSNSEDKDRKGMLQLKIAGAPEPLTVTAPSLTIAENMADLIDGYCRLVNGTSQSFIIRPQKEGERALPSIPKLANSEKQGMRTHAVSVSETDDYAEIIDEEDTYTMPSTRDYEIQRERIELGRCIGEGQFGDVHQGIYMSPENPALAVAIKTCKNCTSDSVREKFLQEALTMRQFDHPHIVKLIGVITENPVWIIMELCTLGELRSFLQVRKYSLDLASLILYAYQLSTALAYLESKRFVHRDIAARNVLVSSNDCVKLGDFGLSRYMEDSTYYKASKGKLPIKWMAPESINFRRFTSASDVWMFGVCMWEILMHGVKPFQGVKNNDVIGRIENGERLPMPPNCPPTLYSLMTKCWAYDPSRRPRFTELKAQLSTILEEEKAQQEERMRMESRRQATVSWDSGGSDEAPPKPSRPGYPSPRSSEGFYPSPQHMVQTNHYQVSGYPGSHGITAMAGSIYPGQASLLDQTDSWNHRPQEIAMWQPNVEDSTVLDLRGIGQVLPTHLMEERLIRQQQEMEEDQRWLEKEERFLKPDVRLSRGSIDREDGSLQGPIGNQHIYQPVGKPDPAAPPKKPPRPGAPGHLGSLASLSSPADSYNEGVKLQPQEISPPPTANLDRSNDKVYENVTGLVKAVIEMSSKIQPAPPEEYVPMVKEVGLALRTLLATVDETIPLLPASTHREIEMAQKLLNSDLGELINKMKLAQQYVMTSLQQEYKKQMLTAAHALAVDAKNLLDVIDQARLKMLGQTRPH

`Cc1ccc(C(=O)Nc2cccc(C(F)(F)F)c2)cc1Nc1nc(-c2cccnc2)nc2c1cnn2C` gave an ED50 [1] of 10.4 µM, an ED50 [2] of 0.0176 µM and an ED50 [3] of 14 µM. It also gave an ED50 [4] of 0.878 µM, an ED50 [5] of 0.626 µM and an ED50 [6] of 3.6 µM. It also gave an ED50 [7] of 57.4 µM, an ED50 [8] of 11.2 µM and an ED50 [9] of 49.5 µM. The ED50 [10] was 2.19 µM, the ED50 [11] was 0.0338 µM and the ED50 [12] was 0.0425 µM. For the same compound, the ED50 [13] was 0.0296 µM, the ED50 [14] was 12.1 µM and the IC50 (Ephrin type-B receptor 3) was 0.006 µM. It also gave an ED50 [15] of 10.7 µM, an ED50 [16] of 0.00369 µM and an ED50 [17] of 30.7 µM. The ED50 [18] was 0.000204 µM, the ED50 [19] was 65.5 µM and the ED50 [20] was 224 µM. The ED50 [21] was 3.47 µM, the ED50 [22] was 2.92 µM and the ED50 [23] was 8.82 µM. For the same compound, the ED50 [24] was 0.655 µM, the ED50 [25] was 0.46 µM and the ED50 [26] was 8.9 µM. It also gave an ED50 [27] of 0.000531 µM, an ED50 [28] of 0.144 µM and an ED50 [29] of 0.00366 µM. The ED50 [30] was 4.89 µM, the ED50 [31] was 4.02 µM and the ED50 [32] was 8.83 µM. The ED50 [33] was 0.0014 µM, the ED50 [34] was 3.15 µM and the ED50 [35] was 39.4 µM. It also gave an ED50 [36] of 1.32 µM, an ED50 (Emerin (Homo sapiens)) of 45.5 µM and an ED50 [37] of 0.0194 µM. The ED50 [38] was 0.0981 µM, the ED50 (Lamin-B2 (Homo sapiens)) was 257 µM and the ED50 [39] was 0.00621 µM. The ED50 [40] was 7.74 µM and the ED50 [41] was 46.5 µM.

`Cc1ccc(C(=O)Nc2cccc(C(F)(F)F)c2)cc1Nc1nc(-c2cccnc2)nc2nn(C)cc12` gave an ED50 [1] of 0.0476 µM, an ED50 [2] of 6.57 µM and an ED50 [3] of 32.9 µM. The ED50 [4] was 160 µM, the ED50 [5] was 0.245 µM and the ED50 [6] was 3.43 µM. The ED50 [7] was 67.3 µM, the ED50 [8] was 0.0526 µM and the ED50 [9] was 25.8 µM. The ED50 [10] was 10.3 µM, the ED50 [11] was 0.0647 µM and the ED50 [12] was 0.00653 µM. The ED50 [13] was 0.515 µM, the ED50 [14] was 0.0358 µM and the IC50 (Ephrin type-B receptor 3) was 0.191 µM. The ED50 [15] was 0.000236 µM, the ED50 [16] was 2770 µM and the ED50 [17] was 32.9 µM. It also gave an ED50 [18] of 0.366 µM, an ED50 [19] of 0.00513 µM and an ED50 [20] of 41.7 µM. For the same compound, the ED50 [21] was 0.0666 µM, the ED50 [22] was 8.18 µM and the ED50 [23] was 1.74 µM. The ED50 [24] was 0.00935 µM, the ED50 [25] was 47.8 µM and the ED50 [26] was 0.0341 µM. It also gave an ED50 [27] of 0.137 µM, an ED50 [28] of 0.0181 µM and an ED50 [29] of 0.593 µM. It also gave an ED50 [30] of 4.73 µM, an ED50 [31] of 2.32 µM and an ED50 [32] of 0.0171 µM. It also gave an ED50 [33] of 0.0676 µM, an ED50 [34] of 0.102 µM and an ED50 [35] of 15 µM. For the same compound, the ED50 [36] was 20.6 µM, the ED50 (Emerin (Homo sapiens)) was 0.501 µM and the ED50 [37] was 1.91 µM. It also gave an ED50 [38] of 3.15 µM, an ED50 (Lamin-B2 (Homo sapiens)) of 1.63 µM and an ED50 [39] of 0.0346 µM. The ED50 [40] was 0.117 µM and the ED50 [41] was 26.6 µM.
